Assay results reported in PubChem BioAssay (NCI).
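Step 1: Grow cells in 96-well plates. Step 2: Expose to compound for 48 hours at 5 concentrations. Step 3: Interpolate endpoints linearly; if unreached, use highest concentration. TGI marks complete inhibition of growth.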

test system: HOP-62 NSCLC; assay: inhibition of tumour cell growth, NCI panel, 48 h

Compound | TGI
O=C(O)c1nc(-c2ccccc2)ncc1-c1nnnn1-c1ccccc1 | > 100 µM

test system: HOP-92 NSCLC; assay: inhibition of tumour cell growth, NCI panel, 48 h

Compound | TGI
C=C1C[C@@H]2O[C@H]3[C@H]4[C@@H](C[C@@H](C)[C@@H](OC(C)=O)[C@H]42)[C@@H](C)CO[C@@]3(C)[C@H](OC(C)=O)C[C@H]1O | > 100 µM
C[N+](C)([O-])CCC=C1c2ccccc2CCc2ccccc21 | 94.4 µM
O=C(O)c1nc(-c2ccccc2)ncc1-c1nnnn1-c1ccccc1 | > 100 µM

test system: HS 578T breast; assay: inhibition of tumour cell growth, NCI panel, 48 h

Compound | TGI
Oc1[nH]c2ccccc2c1N=Nc1ccccc1Cl | > 100 µM
C=C1C[C@@H]2O[C@H]3[C@H]4[C@@H](C[C@@H](C)[C@@H](OC(C)=O)[C@H]42)[C@@H](C)CO[C@@]3(C)[C@H](OC(C)=O)C[C@H]1O | > 100 µM
C[N+](C)([O-])CCC=C1c2ccccc2CCc2ccccc21 | 64.9 µM
O=C(O)c1nc(-c2ccccc2)ncc1-c1nnnn1-c1ccccc1 | > 100 µM

test system: HT29 colon; assay: inhibition of tumour cell growth, NCI panel, 48 h

Compound | TGI
Oc1[nH]c2ccccc2c1N=Nc1ccccc1Cl | > 100 µM
C=C1C[C@@H]2O[C@H]3[C@H]4[C@@H](C[C@@H](C)[C@@H](OC(C)=O)[C@H]42)[C@@H](C)CO[C@@]3(C)[C@H](OC(C)=O)C[C@H]1O | > 100 µM
C[N+](C)([O-])CCC=C1c2ccccc2CCc2ccccc21 | 67.9 µM
O=C(O)c1nc(-c2ccccc2)ncc1-c1nnnn1-c1ccccc1 | > 100 µM

test system: IGROV1 ovarian; assay: inhibition of tumour cell growth, NCI panel, 48 h

Compound | TGI
Oc1[nH]c2ccccc2c1N=Nc1ccccc1Cl | > 100 µM
C=C1C[C@@H]2O[C@H]3[C@H]4[C@@H](C[C@@H](C)[C@@H](OC(C)=O)[C@H]42)[C@@H](C)CO[C@@]3(C)[C@H](OC(C)=O)C[C@H]1O | > 100 µM
C[N+](C)([O-])CCC=C1c2ccccc2CCc2ccccc21 | 33.1 µM
O=C(O)c1nc(-c2ccccc2)ncc1-c1nnnn1-c1ccccc1 | > 100 µM

test system: K-562 leukemia; assay: inhibition of tumour cell growth, NCI panel, 48 h

Compound | TGI
Oc1[nH]c2ccccc2c1N=Nc1ccccc1Cl | > 100 µM
C=C1C[C@@H]2O[C@H]3[C@H]4[C@@H](C[C@@H](C)[C@@H](OC(C)=O)[C@H]42)[C@@H](C)CO[C@@]3(C)[C@H](OC(C)=O)C[C@H]1O | 63.7 µM
C[N+](C)([O-])CCC=C1c2ccccc2CCc2ccccc21 | 52 µM
O=C(O)c1nc(-c2ccccc2)ncc1-c1nnnn1-c1ccccc1 | > 100 µM

test system: KM12 colon; assay: inhibition of tumour cell growth, NCI panel, 48 h

Compound | TGI
Oc1[nH]c2ccccc2c1N=Nc1ccccc1Cl | > 100 µM
C=C1C[C@@H]2O[C@H]3[C@H]4[C@@H](C[C@@H](C)[C@@H](OC(C)=O)[C@H]42)[C@@H](C)CO[C@@]3(C)[C@H](OC(C)=O)C[C@H]1O | > 100 µM
C[N+](C)([O-])CCC=C1c2ccccc2CCc2ccccc21 | 36.3 µM
O=C(O)c1nc(-c2ccccc2)ncc1-c1nnnn1-c1ccccc1 | > 100 µM

test system: LOX IMVI melanoma; assay: inhibition of tumour cell growth, NCI panel, 48 h

Compound | TGI
Oc1[nH]c2ccccc2c1N=Nc1ccccc1Cl | > 100 µM
C=C1C[C@@H]2O[C@H]3[C@H]4[C@@H](C[C@@H](C)[C@@H](OC(C)=O)[C@H]42)[C@@H](C)CO[C@@]3(C)[C@H](OC(C)=O)C[C@H]1O | 38.7 µM
C[N+](C)([O-])CCC=C1c2ccccc2CCc2ccccc21 | 2.7 µM
O=C(O)c1nc(-c2ccccc2)ncc1-c1nnnn1-c1ccccc1 | > 100 µM

test system: M14 melanoma; assay: inhibition of tumour cell growth, NCI panel, 48 h

Compound | TGI
Oc1[nH]c2ccccc2c1N=Nc1ccccc1Cl | > 100 µM
C=C1C[C@@H]2O[C@H]3[C@H]4[C@@H](C[C@@H](C)[C@@H](OC(C)=O)[C@H]42)[C@@H](C)CO[C@@]3(C)[C@H](OC(C)=O)C[C@H]1O | > 100 µM
C[N+](C)([O-])CCC=C1c2ccccc2CCc2ccccc21 | > 100 µM
O=C(O)c1nc(-c2ccccc2)ncc1-c1nnnn1-c1ccccc1 | > 100 µM

test system: MALME-3M melanoma; assay: inhibition of tumour cell growth, NCI panel, 48 h

Compound | TGI
Oc1[nH]c2ccccc2c1N=Nc1ccccc1Cl | > 100 µM
C=C1C[C@@H]2O[C@H]3[C@H]4[C@@H](C[C@@H](C)[C@@H](OC(C)=O)[C@H]42)[C@@H](C)CO[C@@]3(C)[C@H](OC(C)=O)C[C@H]1O | > 100 µM
C[N+](C)([O-])CCC=C1c2ccccc2CCc2ccccc21 | 45.4 µM
O=C(O)c1nc(-c2ccccc2)ncc1-c1nnnn1-c1ccccc1 | > 100 µM

test system: MCF7 breast; assay: inhibition of tumour cell growth, NCI panel, 48 h

Compound | TGI
Oc1[nH]c2ccccc2c1N=Nc1ccccc1Cl | > 100 µM
C=C1C[C@@H]2O[C@H]3[C@H]4[C@@H](C[C@@H](C)[C@@H](OC(C)=O)[C@H]42)[C@@H](C)CO[C@@]3(C)[C@H](OC(C)=O)C[C@H]1O | > 100 µM
C[N+](C)([O-])CCC=C1c2ccccc2CCc2ccccc21 | 48.2 µM
O=C(O)c1nc(-c2ccccc2)ncc1-c1nnnn1-c1ccccc1 | > 100 µM

test system: MDA-MB-231 breast; assay: inhibition of tumour cell growth, NCI panel, 48 h

Compound | TGI
Oc1[nH]c2ccccc2c1N=Nc1ccccc1Cl | 41.6 µM
C=C1C[C@@H]2O[C@H]3[C@H]4[C@@H](C[C@@H](C)[C@@H](OC(C)=O)[C@H]42)[C@@H](C)CO[C@@]3(C)[C@H](OC(C)=O)C[C@H]1O | > 100 µM
C[N+](C)([O-])CCC=C1c2ccccc2CCc2ccccc21 | 68 µM
O=C(O)c1nc(-c2ccccc2)ncc1-c1nnnn1-c1ccccc1 | > 100 µM

test system: MDA-MB-435; assay: inhibition of tumour cell growth, NCI panel, 48 h

Compound | TGI
Oc1[nH]c2ccccc2c1N=Nc1ccccc1Cl | > 100 µM
C=C1C[C@@H]2O[C@H]3[C@H]4[C@@H](C[C@@H](C)[C@@H](OC(C)=O)[C@H]42)[C@@H](C)CO[C@@]3(C)[C@H](OC(C)=O)C[C@H]1O | > 100 µM
C[N+](C)([O-])CCC=C1c2ccccc2CCc2ccccc21 | 38.1 µM
O=C(O)c1nc(-c2ccccc2)ncc1-c1nnnn1-c1ccccc1 | > 100 µM

test system: MDA-N; assay: inhibition of tumour cell growth, NCI panel, 48 h

Compound | TGI
Oc1[nH]c2ccccc2c1N=Nc1ccccc1Cl | > 100 µM
C=C1C[C@@H]2O[C@H]3[C@H]4[C@@H](C[C@@H](C)[C@@H](OC(C)=O)[C@H]42)[C@@H](C)CO[C@@]3(C)[C@H](OC(C)=O)C[C@H]1O | > 100 µM
C[N+](C)([O-])CCC=C1c2ccccc2CCc2ccccc21 | 65.3 µM
O=C(O)c1nc(-c2ccccc2)ncc1-c1nnnn1-c1ccccc1 | > 100 µM

test system: MOLT-4 leukemia; assay: inhibition of tumour cell growth, NCI panel, 48 h

Compound | TGI
Oc1[nH]c2ccccc2c1N=Nc1ccccc1Cl | > 100 µM
C=C1C[C@@H]2O[C@H]3[C@H]4[C@@H](C[C@@H](C)[C@@H](OC(C)=O)[C@H]42)[C@@H](C)CO[C@@]3(C)[C@H](OC(C)=O)C[C@H]1O | 85.6 µM
C[N+](C)([O-])CCC=C1c2ccccc2CCc2ccccc21 | 40.7 µM
O=C(O)c1nc(-c2ccccc2)ncc1-c1nnnn1-c1ccccc1 | > 100 µM

test system: NCI-H226 lung; assay: inhibition of tumour cell growth, NCI panel, 48 h

Compound | TGI
Oc1[nH]c2ccccc2c1N=Nc1ccccc1Cl | > 100 µM
C=C1C[C@@H]2O[C@H]3[C@H]4[C@@H](C[C@@H](C)[C@@H](OC(C)=O)[C@H]42)[C@@H](C)CO[C@@]3(C)[C@H](OC(C)=O)C[C@H]1O | > 100 µM
